The nature of series [1]: in vitro. The following applies: pig.
A further series has as its system YFV. Kind of series: microbe, parasite or virus in culture. In kind it is cell-based, yellow fever virus strain 17D. The settings on record: Yellow fever virus, read-out: YFV EC50.
Series [2] in a line: in vitro. The settings on record: African green monkey.
Series [3] can be described thus: in vitro. The settings on record: pig. This is another data set of the same source.
The nature of series [4]: in vitro. The following applies: African green monkey. This is another data set of the same source.
A further series concerns WNV. Kind of series: microbe, parasite or virus in culture. In kind it is cell-based, West Nile virus strain Strix nebulosa-12. The settings on record: for EC50: West Nile virus, Vero, read-out: WNV EC50.
A further series has as its system TBEV. Kind of series: microbe, parasite or virus in culture. In kind it is cell-based, Tick-borne encephalitis virus strain Absettarov. The following applies: Tick-borne encephalitis virus, PEK, read-out: TBEV EC50.
For a further series, the system named is DENV-3. The settings on record: cited from earlier work.
The subject of another series is DENV-2. The settings on record: cited from earlier work.
For another series, the system named is DENV-1. The following applies: cited from earlier work.

Where only a bound is given, the exact number is not on record here.

As for `O=S(=O)(Cc1ccccc1)NC1=NOC2(CCCCCCC2)C1` [3b], the CC50 in “in vitro [1]”, in the series “in vitro [2]”, in “in vitro [3]” and in the series “in vitro [4]” was above 50 µM in each case. Moreover, the values for the EC50 in the series with YFV, in the series with WNV and in the series with TBEV were 24 ± 11 µM, 9.9 ± 1.5 µM and 13 ± 8 µM, respectively.

As for `O=S(=O)(NC1=NOC2(CCCCCCC2)C1)c1ccc2ccccc2c1` [3j], the CC50 in the series “in vitro [1]” and in the series “in vitro [3]” was above 50 µM in each case. For the same compound, the half-maximal effective concentration (EC50) was 20.3 ± 0.3 µM in the series with WNV and 20 ± 11 µM in the series on TBEV. Further, the “acute and chronic cytotoxicity in Vero cells (in words)” value (from here on “acute and chronic cytotoxicity”) in the series with Vero cells was “both acute and chronic cytotoxicity”.

Compound `O=[N+]([O-])c1ccccc1S(=O)(=O)N(C1=NOC2(CCCCCCC2)C1)S(=O)(=O)c1ccccc1[N+](=O)[O-]` [4h, 2-Nitro-N-((2-nitrophenyl)sulfonyl)-N-(1-oxa-2-azaspiro[4.7]dodec-2-en-3-yl)benzenesulfonamide] had a melting point of 155 to 157 °C. The same compound displayed a CC50 in “in vitro [1]” above 50 µM. This compound displayed a CC50 in the series “in vitro [3]” above 50 µM. For the same compound, the EC50 in the series with WNV is 7.8 ± 1 µM. Moreover, in the series on Vero cells, the “acute and chronic cytotoxicity” value is reported as “only acute toxic”. For the same compound, the EC50 in the series with TBEV was 20 ± 11 µM.

In turn, `O=[N+]([O-])c1ccc(S(=O)(=O)N(C2=NOC3(CCCCCCC3)C2)S(=O)(=O)c2ccc([N+](=O)[O-])cc2)cc1` [4i, 4-Nitro-N-((4-nitrophenyl)sulfonyl)-N-(1-oxa-2-azaspiro[4.7]dodec-2-en-3-yl)benzenesulfonamide] returned a melting point of 178 to 180 °C. This compound yielded a CC50 in the series “in vitro [1]” above 50 µM. This compound came in with a CC50 in the series “in vitro [3]” above 50 µM. Further, the EC50 with WNV was 5.3 ± 1 µM. The “acute and chronic cytotoxicity” value in the series with Vero cells was “both acute and chronic cytotoxicity”. Also, the 50% effective concentration (EC50) with TBEV was 2 ± 0.5 µM.

In turn, `Cc1ccc(S(=O)(=O)N(C2=NOC3CCCCCCC23)S(=O)(=O)c2ccc(C)cc2)cc1` (stereo not drawn) [5d, 4-Methyl-N-(3a,4,5,6,7,8,9,9a-octahydrocycloocta[d]isoxazol-3-yl)-N-tosylbenzenesulfonamide] returned a melting point of 113 to 114 °C. This compound returned a CC50 in the series “in vitro [1]” above 50 µM. The CC50 in the series “in vitro [2]” was above 50 µM. In the series “in vitro [3]”, the CC50 was above 50 µM. In the series “in vitro [4]”, the CC50 is above 50 µM. Further, the EC50 in the series with WNV is 14 ± 8 µM. Moreover, the concentration giving a half-maximal response (EC50) with TBEV was 34 ± 4 µM.

Compound `Cc1cc(C)c(S(=O)(=O)N(C2=NOC3CCCCCCC23)S(=O)(=O)c2c(C)cc(C)cc2C)c(C)c1` (stereo not drawn) [5e, N-(Mesitylsulfonyl)-2,4,6-trimethyl-N-(3a,4,5,6,7,8,9,9a-octahydrocycloocta[d]isoxazol-3-yl)benzenesulfonamide] showed a melting point of 148 to 149 °C. Besides, in “in vitro [1]”, the CC50 was above 50 µM. In “in vitro [2]”, this compound displayed a CC50 above 50 µM. For the same compound, the CC50 in the series “in vitro [3]” is above 50 µM. The same compound came in with a CC50 in the series “in vitro [4]” above 50 µM. The EC50 in the series with WNV turned out to be 4 ± 0.6 µM. For the same compound, the EC50 in the series on TBEV is 10 ± 5 µM.

`O=S(=O)(c1ccc2c(c1)OCCO2)N(C1=NOC2CCCCCCC12)S(=O)(=O)c1ccc2c(c1)OCCO2` (stereo not drawn) [5f, N-((2,3-Dihydrobenzo[b][1, 4]dioxin-6-yl)sulfonyl)-N-(3a,4,5,6,7,8,9,9a-octahydrocycloocta[d]isoxazol-3-yl)-2,3-dihydrobenzo[b][1, 4]dioxine-6-sulfonamide] gave a melting point of 129 to 130 °C. Besides, in “in vitro [1]”, the CC50 is above 50 µM. Further, the CC50 in “in vitro [2]” is above 50 µM. Further, the CC50 in the series “in vitro [3]” was above 50 µM. Further, the CC50 in the series “in vitro [4]” is above 50 µM. Also, the concentration giving a half-maximal response (EC50) in the series with WNV is 16 ± 10 µM. Also, the EC50 with TBEV came out at 29 ± 7 µM.

For the compound `O=S(=O)(c1ccc(F)cc1F)N(C1=NOC2CCCCCCC12)S(=O)(=O)c1ccc(F)cc1F` (stereo not drawn) [5g, N-((2,4-difluorophenyl)sulfonyl)-2,4-difluoro-N-(3a,4,5,6,7,8,9,9a-octahydrocycloocta[d]isoxazol-3-yl)benzenesulfonamide], the melting point was 129 to 131 °C. In the series “in vitro [1]”, the CC50 was above 50 µM. The CC50 in “in vitro [2]” was above 50 µM. Further, in the series “in vitro [3]”, the CC50 is above 50 µM. In “in vitro [4]”, this compound came in with a CC50 above 50 µM. For the same compound, the 50% effective concentration (EC50) in the series with WNV was determined as 12 ± 6 µM. The EC50 in the series on TBEV worked out at 33 ± 15 µM.

Regarding `O=[N+]([O-])c1ccc(S(=O)(=O)N(C2=NOC3CCCCCCC23)S(=O)(=O)c2ccc([N+](=O)[O-])cc2)cc1` (stereo not drawn) [5i, 4-Nitro-N-((4-nitrophenyl)sulfonyl)-N-(3a,4,5,6,7,8,9,9a-octahydrocycloocta[d]isoxazol-3-yl)benzenesulfonamide], the melting point fell in the range of 139 to 140 °C. Besides, the CC50 in the series “in vitro [1]” worked out at 41 ± 1.8 µM. Moreover, in “in vitro [2]”, the CC50 is above 50 µM. This compound had a CC50 in the series “in vitro [3]” above 50 µM. In addition, in “in vitro [4]”, the CC50 is above 50 µM. For the same compound, the EC50 with WNV came out at 19 ± 11 µM. Besides, the half-maximal effective concentration (EC50) in the series on TBEV was 19 ± 4 µM. Besides, the “cytotoxicity against PEK cells during 7 days of incubation (in words)” value with PEK cells is “slightly toxic”.

Compound `O=S(=O)(c1ccc2ccccc2c1)N(C1=NOC2CCCCCCC12)S(=O)(=O)c1ccc2ccccc2c1` (stereo not drawn) [5j, N-(Naphthalen-2-ylsulfonyl)-N-(3a,4,5,6,7,8,9,9a-octahydrocycloocta[d]isoxazol-3-yl)naphthalene-2-sulfonamide] came in with a melting point of 160 to 162 °C. Also, the CC50 in the series “in vitro [1]” was above 50 µM. Moreover, in “in vitro [2]”, the CC50 was above 50 µM. This compound also showed a CC50 in the series “in vitro [3]” above 50 µM. Further, in “in vitro [4]”, the CC50 is above 50 µM. In addition, the EC50 in the series on WNV came out at 5.9 ± 1.8 µM. The EC50 in the series on TBEV worked out at 10 ± 2.4 µM.

As to `O=S(=O)(c1cccs1)N(C1=NOC2CCCCCCC12)S(=O)(=O)c1cccs1` (stereo not drawn) [5k, N-(3a,4,5,6,7,8,9,9a-Octahydrocycloocta[d]isoxazol-3-yl)-N-(thiophen-2-ylsulfonyl)thiophene-2-sulfonamide], the melting point was 131 to 132 °C. Further, the CC50 in “in vitro [1]” is above 50 µM. Also, in the series “in vitro [3]”, the CC50 was above 50 µM. For the same compound, the EC50 with WNV was 18 ± 4 µM. For the same compound, in the series on Vero cells, the “acute and chronic cytotoxicity” value is “both acute and chronic cytotoxicity”. Further, the EC50 in the series on TBEV amounted to 20 ± 3 µM.

The compound `O=S(=O)(c1cccnc1)N(C1=NOC2CCCCCCC12)S(=O)(=O)c1cccnc1` (stereo not drawn) [5l, N-(3a,4,5,6,7,8,9,9a-Octahydrocycloocta[d]isoxazol-3-yl)-N-(pyridin-3-ylsulfonyl)pyridine-3-sulfonamide] displayed a melting point of 150 to 151 °C. The compound also gave a CC50 in “in vitro [1]” above 50 µM. The CC50 in the series “in vitro [2]” is above 50 µM. The CC50 in “in vitro [3]” is above 50 µM. For the same compound, the CC50 in “in vitro [4]” is above 50 µM. In the series on WNV, the “anti-WNV activity (in words)” value was “complete loss of anti-WNV activity” and the half-maximal effective concentration (EC50) was above 50 µM. In addition, the EC50 in the series on TBEV is 36 ± 4 µM.

On to `CC(C)CCN1C(=O)[C@]2(CC(=O)Nc3c2nnn3[C@@H](C)c2ccc(Cl)cc2)c2cc(Cl)ccc21` [JMX0254], for which the EC50 in the series with DENV-3 is 0.035 µM; in the series on DENV-2, 0.16 µM; in the series with DENV-1 it was 0.78 µM.

(Values after PMC10341786 (International Journal of Molecular Sciences, 2023).)
